Common to all, as to assay type: cell-based
One assay relates to Cordana musae. Nature of the assay: in vitro-Test with Cordana musae (microtiter growth inhibition). The conditions noted are these: single substance. As for the experimental part: (§1) The degree of efficacy expressed in % is denoted: 0% means an efficacy, which corresponds to that of the control, while an efficacy of 100% means that no disease is observed.
(§2) If the actual fungicidal activity exceeds the calculated value, then the activity of the combination is super-additive, i.e. a synergistic effect exists. In this case, the efficacy, which was actually observed, must be greater than the value for the expected efficacy (E), that was calculated from the abovementioned formula.
(§3) Example: In Vitro-Test with Fungal Microorganisms
(§4) Wells of 96-well microtiter plates are filled with 10 μl of a preparation of test compound or compound combination in methanol+emulsifier alkylaryl-polyglycol-ether. Thereafter, the solvent is evaporated in a hood. At the next step, 100 μl of liquid potato dextrose medium is given into each well, that has been amended with an appropriate concentration of spores or mycelium suspension of the test fungus.
(§5) With the aid of a photometer, the extinction in all wells is measured at the wavelength of 620 nm.
(§6) The microtiter plates are incubated at 20° C. and 85% relative humidity. The inhibition of growth is determined again photometrically 3-5 days after the application. Efficacy is calculated in relation to the untreated control, 0% efficacy means fungal growth as high as in untreated control while 100% efficacy means no fungal growth is measured.

Another assay relates to Fusarium culmorum. As to the kind of experiment: in vitro-Test with Fusarium culmorum (microtiter growth inhibition). On the procedure:
as §1, §2, §3, §4, §5, §6

The test system of a further assay is Alternaria alternate. Nature of the assay: in vitro-Test with Alternaria alternate (microtiter growth inhibition). The conditions noted are these: for inhibition of growth at 0.008 ppm / inhibition of growth at 0.04 ppm / inhibition of growth at 1 ppm / inhibition of growth at 0.2 ppm / inhibition of growth at 0.8 ppm / inhibition of growth at 4 ppm / inhibition of growth at 20 ppm: Alternaria. On the procedure: as §1, §2, §3, §4, §5, §6

For a further assay, the system named is Cercospora beticola. Nature of the assay: in vitro-Test with Cercospora beticola (microtiter growth inhibition). The conditions noted are these: alone. As for the experimental part:
as §1, §2, §3, §4, §5, §6

The next assay deals with Diaporthe citri. Nature of the assay: in vitro-Test with Diaporthe citri (microtiter growth inhibition). As to conditions: applied alone. As for the experimental part: as §2, §3, §4, §5, §6
In assay [1] the test system is Ustilago segetum var. avenae. As to the kind of experiment: in vitro-Test with Ustilago segetum var. avenae (microtiter growth inhibition). The conditions noted are these: single compound. On the procedure:
as §1, §2, §3, §4, §5, §6

For another assay, the system named is Botrytis cinerea. Nature of the assay: in vitro-Test with Botrytis cinerea (microtiter growth inhibition). The conditions noted are these: applied alone. As for the experimental part:
as §1, §2, §3, §4, §5, §6

Where [2] appears, read: Fusarium culmorum, 0.04 ppm, read-out: Efficacy.
The mark [3] stands for this setting: Fusarium culmorum, 1.0 ppm, read-out: Efficacy.
[4] abbreviates: 0.008 ppm, alone, read-out: Efficacy %.
Where [5] appears, read: 0.04 ppm, alone, read-out: Efficacy %.
The mark [6] stands for this setting: 1.0 ppm, alone, read-out: Efficacy %.
Setting [7] is: applied alone, 0.008 ppm, read-out: Efficacy.
Setting [8] is: applied alone, 0.2 ppm, read-out: Efficacy.
The mark [9] stands for this setting: Cercospora beticola, 0.008 ppm, read-out: Efficacy %.
The mark [10] stands for this setting: Cercospora beticola, read-out: Efficacy %.
The mark [11] stands for this setting: Cercospora beticola, 1.0 ppm, read-out: Efficacy %.
Setting [12] is: Diaporthe citri, 0.04 ppm, read-out: Efficacy.
Where [13] appears, read: Diaporthe citri, 1.0 ppm, read-out: Efficacy.
Where [14] appears, read: Neocordana musae, read-out: Efficacy.
Setting [15] is: Fusarium culmorum, read-out: Efficacy.
The mark [16] stands for this setting: Diaporthe citri, read-out: Efficacy.
[17] abbreviates: applied alone, read-out: Efficacy.

SMILES strings stand for the structures. Several values for one entry are separate records, joined by “and”; a condition that tells them apart may be missing. Equal values may be shown once. Read-outs that look alike come from different tables or passages of the source.

`CC1COC(Cn2cncn2)(c2ccc(Oc3ccc(Cl)cc3)cc2Cl)O1` (stereo not drawn) [difenoconazole]: the inhibition of growth at 0.008 ppm in the assay with Cordana musae (Neocordana musae, 0.008 ppm, read-out: Efficacy) turned out to be 0%; in the assay with Fusarium culmorum (Fusarium culmorum, 0.008 ppm, read-out: Efficacy), 3%; in the assay with Alternaria alternate (setting [4]) it was 8%; with Alternaria alternate (setting [7]) it was 11%; in the assay on Cercospora beticola (setting [9]) it was 9%. Moreover, the inhibition of growth at 1 ppm in the assay on Cordana musae (Neocordana musae, 1.0 ppm, read-out: Efficacy) was found to be 42%; in the assay on Fusarium culmorum (setting [3]), 0%; with Alternaria alternate (setting [6]), 98%; in the assay on Cercospora beticola (setting [11]), 100%; in the assay with Diaporthe citri (setting [13]), 88%; in assay [1] (1.0 ppm, read-out: Efficacy %), 100%. The inhibition of growth at 0.04 ppm in the assay on Fusarium culmorum (setting [2]) came to 8%; with Alternaria alternate (setting [5]), 4%; in the assay on Diaporthe citri (setting [12]), 13%; in assay [1] (0.04 ppm, read-out: Efficacy %), 4%. Further, the inhibition of growth at 0.2 ppm in the assay on Fusarium culmorum (Fusarium culmorum, 0.2 ppm, read-out: Efficacy) stood at 0%; with Alternaria alternate (setting [8]), 3%; in the assay with Cercospora beticola (setting [10]), 68%; in assay [1] (0.2 ppm, read-out: Efficacy %), 70%. In addition, the Efficacy in the assay with Diaporthe citri (0.008 ppm) is 0%.
Consider `N#Cc1sc2c(=O)c3ccccc3c(=O)c=2sc1C#N` [dithianon], for which the inhibition of growth at 0.8 ppm in the assay with Cordana musae (setting [14]) amounted to 9%; with Fusarium culmorum (setting [15]), 0%; in the assay on Alternaria alternate (alone, read-out: Efficacy %) it was 0%; in the assay on Diaporthe citri (Diaporthe citri, 0.8 ppm, read-out: Efficacy), 34%. The inhibition of growth at 4 ppm came to 99% in the assay with Cordana musae (setting [14]); 39% in the assay with Fusarium culmorum (setting [15]); 71% with Alternaria alternate (alone, read-out: Efficacy %); 99% with Cercospora beticola (Cercospora beticola, 4 ppm, read-out: Efficacy %); 98% in the assay on Diaporthe citri (setting [16]). Besides, the inhibition of growth at 20 ppm was determined as 98% in the assay with Cordana musae (setting [14]); 100% in the assay with Fusarium culmorum (setting [15]); 100% in the assay on Alternaria alternate (alone, read-out: Efficacy %); 98% in the assay on Cercospora beticola (setting [10]); 97% in the assay with Diaporthe citri (setting [16]).
With `COc1ccnc(C(=O)N[C@H]2COC(=O)[C@H](Cc3ccccc3)[C@@H](OC(=O)C(C)C)[C@H](C)OC2=O)c1OCOC(=O)C(C)C` [fenpicoxamid], the Efficacy is listed as 50% in the assay with Cordana musae (1.0 ppm); 74% in the assay with Cordana musae (5.0 ppm); 0% in the assay on Fusarium culmorum (0.04 ppm); 0% with Fusarium culmorum (0.2 ppm); 0% with Fusarium culmorum (1.0 ppm); 0% in the assay with Fusarium culmorum (5.0 ppm). Also, the Efficacy in the assay on Alternaria alternate (applied alone, 5.0 ppm) was 64%; in the assay on Diaporthe citri (0.04 ppm) it was 0%; in the assay on Diaporthe citri (0.2 ppm) it was 5% and 0%; in the assay with Diaporthe citri (1.0 ppm), 87% and 73% and 75%; with Diaporthe citri (5.0 ppm), 94% and 93% and 90%. Besides, the Efficacy % in the assay on Alternaria alternate (0.2 ppm, alone) was 10% and 4%; in the assay with Alternaria alternate (5.0 ppm, alone) it was 80% and 81%; in the assay on Cercospora beticola (1.0 ppm) it was 74% and 58% and 42%; in the assay with Cercospora beticola (5.0 ppm), 86% and 78%.
Turning to `O=C(NCCc1ncc(C(F)(F)F)cc1Cl)c1ccccc1C(F)(F)F` [fluopyram], the inhibition of growth at 0.8 ppm was determined as 0% with Cordana musae (setting [14]); 1% in the assay with Fusarium culmorum (setting [15]); 77% with Alternaria alternate (alone, read-out: Efficacy %); 81% with Alternaria alternate (setting [17]). For the same molecule, the inhibition of growth at 4 ppm turned out to be 5% with Cordana musae (setting [14]); 0% with Fusarium culmorum (setting [15]); 94% in the assay with Alternaria alternate (alone, read-out: Efficacy %); 85% in the assay with Alternaria alternate (setting [17]); 0% with Diaporthe citri (setting [16]). Also, the inhibition of growth at 20 ppm stood at 20% in the assay with Cordana musae (setting [14]); 3% with Fusarium culmorum (setting [15]); 99% in the assay on Alternaria alternate (setting [17]); 17% in the assay on Cercospora beticola (setting [10]); 26% in the assay with Diaporthe citri (setting [16]).
For the molecule `CC(C)c1ccc(Cl)cc1CN(C(=O)c1c(C(F)F)nn(C)c1F)C1CC1` [isoflucypram], the Efficacy in the assay with Cordana musae (0.008 ppm) was 0%; in the assay on Cordana musae (0.04 ppm), 10% and 12%; in the assay with Cordana musae (0.2 ppm), 0%; in the assay on Cordana musae (1.0 ppm), 18% and 8%; in the assay with Fusarium culmorum (0.008 ppm), 0%; in the assay with Fusarium culmorum (0.04 ppm), 0%. The Efficacy with Fusarium culmorum (0.2 ppm) is 0%; in the assay with Fusarium culmorum (1.0 ppm) it was 0%; in the assay on Alternaria alternate (applied alone, 0.008 ppm), 53%; in the assay with Alternaria alternate (applied alone, 0.04 ppm), 71%; in the assay with Alternaria alternate (applied alone, 0.2 ppm) it was 73%; in the assay with Diaporthe citri (0.008 ppm), 0%. The Efficacy was 0% in the assay with Diaporthe citri (0.04 ppm); 0% in the assay with Diaporthe citri (0.2 ppm); 49% and 41% with Diaporthe citri (1.0 ppm). For the same molecule, the Efficacy % with Alternaria alternate (0.008 ppm, alone) is 44% and 41%; in the assay on Alternaria alternate (0.04 ppm, alone), 69% and 76%; with Alternaria alternate (0.2 ppm, alone), 85% and 81%; in the assay with Alternaria alternate (1.0 ppm, alone), 74%; in the assay on Cercospora beticola (0.008 ppm) it was 11%; in the assay on Cercospora beticola (0.04 ppm), 16%. For the same molecule, the Efficacy % in the assay on Cercospora beticola (1.0 ppm) was 35% and 39%; in assay [1] (0.008 ppm), 0%; in assay [1] (0.04 ppm) it was 45%; in assay [1] (0.2 ppm), 100%; in assay [1] (1.0 ppm), 100%.
Turning to `CC(C)(C)C(O)(CCc1ccc(Cl)cc1)Cn1cncn1` (stereo not drawn) [tebuconazole], the Efficacy with Botrytis cinerea (0.008 ppm) is listed as 0%; in the assay on Botrytis cinerea (0.04 ppm) it was 8%; in the assay with Botrytis cinerea (0.2 ppm), 20%; with Botrytis cinerea (1.0 ppm), 100%. Further, the inhibition of growth at 0.2 ppm amounted to 2% with Cordana musae (Neocordana musae, 0.2 ppm, read-out: Efficacy); 32% in the assay on Alternaria alternate (0.2 ppm, alone, read-out: Efficacy %); 48% in the assay with Alternaria alternate (setting [8]); 83% with Cercospora beticola (setting [10]); 96% in the assay on Diaporthe citri (Diaporthe citri, 0.2 ppm, read-out: Efficacy). Moreover, the inhibition of growth at 0.04 ppm in the assay with Fusarium culmorum (setting [2]) amounted to 0%; in the assay with Alternaria alternate (setting [5]), 9%; in the assay on Alternaria alternate (applied alone, 0.04 ppm, read-out: Efficacy) it was 14%; in the assay with Cercospora beticola (Cercospora beticola, 0.04 ppm, read-out: Efficacy %), 22%; with Diaporthe citri (setting [12]) it was 47%. Further, the inhibition of growth at 1 ppm in the assay on Fusarium culmorum (setting [3]) was 99%; in the assay on Alternaria alternate (setting [6]) it was 98%; in the assay with Alternaria alternate (applied alone, 1.0 ppm, read-out: Efficacy) it was 99%; in the assay with Cercospora beticola (setting [11]), 100%; with Diaporthe citri (setting [13]), 98%. The inhibition of growth at 0.008 ppm came to 11% with Alternaria alternate (setting [4]), 0% with Alternaria alternate (setting [7]) and 0% with Cercospora beticola (setting [9]).

The record behind these values is patent US20230165252A1, “ACTIVE COMPOUND COMBINATIONS” (Bayer Aktiengesellschaft, priority 2020, published 2023).
